From ChEMBL document CHEMBL5303573, “Mapping human microbiome drug metabolism by gut bacteria and their genes” (Nature, 2019)

Tests used:
[1] = The drug is tested on Blautia luti strain: DSM14534 for biotransformation. The drug concentrations were measured before and after a 12-h incubation by liquid-chromatography-coupled mass spectrometry (LC–MS); type: ADME; design: dose 2 uM, timepoint 0 vs 12 hours; conditions: 2 µM
[2] = segatella copri, 12 h, 2 µM
Description: The drug is tested on Prevotella copri strain: DSM18205 for biotransformation. The drug concentrations were measured before and after a 12-h incubation by liquid-chromatography-coupled mass spectrometry (LC–MS)

[3] = The drug is tested on Subdoligranulum variabile strain: DSM15176 for biotransformation. The drug concentrations were measured before and after a 12-h incubation by liquid-chromatography-coupled mass spectrometry (LC–MS); conditions: 2 µM
[4] = The drug is tested on Clostridium sp. strain: fecal isolate for biotransformation. The drug concentrations were measured before and after a 12-h incubation by liquid-chromatography-coupled mass spectrometry (LC–MS); conditions: 2 µM
[5] = The drug is tested on Bacteroides caccae strain: ATCC43185 for biotransformation. The drug concentrations were measured before and after a 12-h incubation by liquid-chromatography-coupled mass spectrometry (LC–MS); conditions: 2 µM
[6] = anaerostipes sp., 12 h, 2 µM
Description: The drug is tested on Anaerostipes sp. strain: fecal isolate for biotransformation. The drug concentrations were measured before and after a 12-h incubation by liquid-chromatography-coupled mass spectrometry (LC–MS)

[7] = parabacteroides johnsonii, 12 h, 2 µM
Description: The drug is tested on Parabacteroides johnsonii strain: DSM18315 for biotransformation. The drug concentrations were measured before and after a 12-h incubation by liquid-chromatography-coupled mass spectrometry (LC–MS)

[8] = The drug is tested on Providencia stuartii strain: ATCC25827 for biotransformation. The drug concentrations were measured before and after a 12-h incubation by liquid-chromatography-coupled mass spectrometry (LC–MS); conditions: 2 µM
[9] = The drug is tested on Dorea formicigenerans strain: ATCC27755 for biotransformation. The drug concentrations were measured before and after a 12-h incubation by liquid-chromatography-coupled mass spectrometry (LC–MS); conditions: 2 µM
[10] = The drug is tested on Bacteroides fragilis strain: HMW610 for biotransformation. The drug concentrations were measured before and after a 12-h incubation by liquid-chromatography-coupled mass spectrometry (LC–MS); conditions: 2 µM
[11] = The drug is tested on Edwardsiella tarda strain: ATCC23685 for biotransformation. The drug concentrations were measured before and after a 12-h incubation by liquid-chromatography-coupled mass spectrometry (LC–MS); conditions: 2 µM
[12] = akkermansia muciniphila, 12 h, 2 µM
Description: The drug is tested on Akkermansia muciniphila strain: ATCC BAA-835 for biotransformation. The drug concentrations were measured before and after a 12-h incubation by liquid-chromatography-coupled mass spectrometry (LC–MS)

[13] = bacteroides thetaiotaomicron, 12 h, 2 µM
Description: The drug is tested on Bacteroides thetaiotaomicron strain: 3731 for biotransformation. The drug concentrations were measured before and after a 12-h incubation by liquid-chromatography-coupled mass spectrometry (LC–MS)

[14] = bacteroides fragilis, 12 h, 2 µM
Description: The drug is tested on Bacteroides fragilis strain: 3397 (T10) for biotransformation. The drug concentrations were measured before and after a 12-h incubation by liquid-chromatography-coupled mass spectrometry (LC–MS)

[15] = The drug is tested on Providencia rettgeri strain: DSM1131 for biotransformation. The drug concentrations were measured before and after a 12-h incubation by liquid-chromatography-coupled mass spectrometry (LC–MS); type: ADME; design: dose 2 uM, timepoint 0 vs 12 hours; conditions: 2 µM
[16] = bacteroides fragilis, 12 h, 2 µM; remark: listed apart in the source
Description: The drug is tested on Bacteroides fragilis strain: NCTC 9343 for biotransformation. The drug concentrations were measured before and after a 12-h incubation by liquid-chromatography-coupled mass spectrometry (LC–MS)

[17] = The drug is tested on Clostridium symbiosum strain: ATCC14940 for biotransformation. The drug concentrations were measured before and after a 12-h incubation by liquid-chromatography-coupled mass spectrometry (LC–MS); conditions: 2 µM
[18] = The drug is tested on Ruminococcus torques strain: ATCC27756 for biotransformation. The drug concentrations were measured before and after a 12-h incubation by liquid-chromatography-coupled mass spectrometry (LC–MS); type: ADME; design: dose 2 uM, timepoint 0 vs 12 hours; conditions: 2 µM
[19] = The drug is tested on Collinsella intestinalis strain: DSM13280 for biotransformation. The drug concentrations were measured before and after a 12-h incubation by liquid-chromatography-coupled mass spectrometry (LC–MS); conditions: 2 µM
[20] = The drug is tested on Clostridium sporogenes strain: ATCC15579 for biotransformation. The drug concentrations were measured before and after a 12-h incubation by liquid-chromatography-coupled mass spectrometry (LC–MS); conditions: 2 µM

COc1ccnc(C[S+]([O-])c2nc3ccc(OC(F)F)cc3[nH]2)c1OC (stereo not given) [PANTOPRAZOLE]
Bacterial Biotransformation [1]: Compound metabolized | Bacterial Biotransformation [2]: Compound metabolized | Bacterial Biotransformation [3]: Compound metabolized | Bacterial Biotransformation [4]: Compound metabolized | Bacterial Biotransformation [5]: Compound metabolized | Bacterial Biotransformation [6]: Compound metabolized | Bacterial Biotransformation [7]: Compound metabolized | Bacterial Biotransformation [8]: Compound metabolized | Bacterial Biotransformation [9]: Compound metabolized | Bacterial Biotransformation [10]: Compound metabolized | Bacterial Biotransformation [11]: Compound metabolized | Bacterial Biotransformation [12]: Compound metabolized | Bacterial Biotransformation [13]: Compound metabolized | Bacterial Biotransformation [14]: Compound metabolized | Bacterial Biotransformation [15]: Compound metabolized | Bacterial Biotransformation [16]: Compound metabolized | Bacterial Biotransformation [17]: Compound metabolized | Bacterial Biotransformation [18]: Compound metabolized | Bacterial Biotransformation [19]: Compound metabolized | Bacterial Biotransformation [20]: Compound metabolized

CN1CCc2cccc3c2[C@H]1Cc1ccc(O)c(O)c1-3 [APOMORPHINE]
Bacterial Biotransformation [1]: Compound NOT metabolized | Bacterial Biotransformation [2]: Compound NOT metabolized | Bacterial Biotransformation [3]: Compound NOT metabolized | Bacterial Biotransformation [4]: Compound NOT metabolized | Bacterial Biotransformation [5]: Compound NOT metabolized | Bacterial Biotransformation [6]: Compound NOT metabolized | Bacterial Biotransformation [7]: Compound NOT metabolized | Bacterial Biotransformation [8]: Compound NOT metabolized | Bacterial Biotransformation [9]: Compound NOT metabolized | Bacterial Biotransformation [10]: Compound NOT metabolized | Bacterial Biotransformation [11]: Compound NOT metabolized | Bacterial Biotransformation [12]: Compound NOT metabolized | Bacterial Biotransformation [13]: Compound NOT metabolized | Bacterial Biotransformation [14]: Compound NOT metabolized | Bacterial Biotransformation [15]: Compound NOT metabolized | Bacterial Biotransformation [16]: Compound NOT metabolized | Bacterial Biotransformation [17]: Compound NOT metabolized | Bacterial Biotransformation [18]: Compound NOT metabolized | Bacterial Biotransformation [19]: Compound NOT metabolized | Bacterial Biotransformation [20]: Compound NOT metabolized

N[C@@H](Cc1ccc(N(CCCl)CCCl)cc1)C(=O)O
Bacterial Biotransformation [1]: Compound metabolized | Bacterial Biotransformation [2]: Compound metabolized | Bacterial Biotransformation [3]: Compound metabolized | Bacterial Biotransformation [4]: Compound metabolized | Bacterial Biotransformation [5]: Compound metabolized | Bacterial Biotransformation [6]: Compound metabolized | Bacterial Biotransformation [7]: Compound metabolized | Bacterial Biotransformation [8]: Compound metabolized | Bacterial Biotransformation [9]: Compound metabolized | Bacterial Biotransformation [10]: Compound metabolized | Bacterial Biotransformation [11]: Compound metabolized | Bacterial Biotransformation [12]: Compound metabolized | Bacterial Biotransformation [13]: Compound metabolized | Bacterial Biotransformation [14]: Compound metabolized | Bacterial Biotransformation [15]: Compound metabolized | Bacterial Biotransformation [16]: Compound metabolized | Bacterial Biotransformation [17]: Compound metabolized | Bacterial Biotransformation [18]: Compound metabolized | Bacterial Biotransformation [19]: Compound metabolized | Bacterial Biotransformation [20]: Compound metabolized

CN1CCC(=C2c3ccccc3CCc3cccnc32)CC1.O=C(O)/C=C\C(=O)O.O=C(O)/C=C\C(=O)O [AZATADINE MALEATE]
Bacterial Biotransformation [1]: Compound NOT metabolized | Bacterial Biotransformation [2]: Compound NOT metabolized | Bacterial Biotransformation [3]: Compound NOT metabolized | Bacterial Biotransformation [4]: Compound NOT metabolized | Bacterial Biotransformation [5]: Compound NOT metabolized | Bacterial Biotransformation [6]: Compound NOT metabolized | Bacterial Biotransformation [7]: Compound NOT metabolized | Bacterial Biotransformation [8]: Compound NOT metabolized | Bacterial Biotransformation [9]: Compound NOT metabolized | Bacterial Biotransformation [10]: Compound NOT metabolized | Bacterial Biotransformation [11]: Compound NOT metabolized | Bacterial Biotransformation [12]: Compound NOT metabolized | Bacterial Biotransformation [13]: Compound NOT metabolized | Bacterial Biotransformation [14]: Compound NOT metabolized | Bacterial Biotransformation [15]: Compound NOT metabolized | Bacterial Biotransformation [16]: Compound NOT metabolized | Bacterial Biotransformation [17]: Compound NOT metabolized | Bacterial Biotransformation [18]: Compound NOT metabolized | Bacterial Biotransformation [19]: Compound NOT metabolized | Bacterial Biotransformation [20]: Compound NOT metabolized

C#C[C@]1(O)CC[C@H]2[C@@H]3CCC4=Cc5oncc5C[C@]4(C)[C@H]3CC[C@@]21C [DANAZOL]
Bacterial Biotransformation [1]: Compound metabolized | Bacterial Biotransformation [2]: Compound metabolized | Bacterial Biotransformation [3]: Compound metabolized | Bacterial Biotransformation [4]: Compound metabolized | Bacterial Biotransformation [5]: Compound metabolized | Bacterial Biotransformation [6]: Compound metabolized | Bacterial Biotransformation [7]: Compound metabolized | Bacterial Biotransformation [8]: Compound metabolized | Bacterial Biotransformation [9]: Compound metabolized | Bacterial Biotransformation [10]: Compound metabolized | Bacterial Biotransformation [11]: Compound metabolized | Bacterial Biotransformation [12]: Compound metabolized | Bacterial Biotransformation [13]: Compound metabolized | Bacterial Biotransformation [14]: Compound metabolized | Bacterial Biotransformation [15]: Compound metabolized | Bacterial Biotransformation [16]: Compound metabolized | Bacterial Biotransformation [17]: Compound metabolized | Bacterial Biotransformation [18]: Compound metabolized | Bacterial Biotransformation [19]: Compound metabolized | Bacterial Biotransformation [20]: Compound metabolized

CSc1ccc2c(c1)C(N1CCN(C)CC1)Cc1ccccc1S2.O=C(O)/C=C\C(=O)O (stereo not given)
Bacterial Biotransformation [1]: Compound NOT metabolized | Bacterial Biotransformation [2]: Compound metabolized | Bacterial Biotransformation [3]: Compound NOT metabolized | Bacterial Biotransformation [4]: Compound NOT metabolized | Bacterial Biotransformation [5]: Compound NOT metabolized | Bacterial Biotransformation [6]: Compound metabolized | Bacterial Biotransformation [7]: Compound metabolized | Bacterial Biotransformation [8]: Compound NOT metabolized | Bacterial Biotransformation [9]: Compound NOT metabolized | Bacterial Biotransformation [10]: Compound NOT metabolized | Bacterial Biotransformation [11]: Compound NOT metabolized | Bacterial Biotransformation [12]: Compound NOT metabolized | Bacterial Biotransformation [13]: Compound NOT metabolized | Bacterial Biotransformation [14]: Compound NOT metabolized | Bacterial Biotransformation [15]: Compound NOT metabolized | Bacterial Biotransformation [16]: Compound NOT metabolized | Bacterial Biotransformation [17]: Compound NOT metabolized | Bacterial Biotransformation [18]: Compound NOT metabolized | Bacterial Biotransformation [19]: Compound NOT metabolized | Bacterial Biotransformation [20]: Compound metabolized

CCOc1ccc2nc(S(N)(=O)=O)sc2c1 [ETHOXZOLAMIDE]
Bacterial Biotransformation [1]: Compound metabolized | Bacterial Biotransformation [2]: Compound metabolized | Bacterial Biotransformation [3]: Compound metabolized | Bacterial Biotransformation [4]: Compound metabolized | Bacterial Biotransformation [5]: Compound metabolized | Bacterial Biotransformation [6]: Compound metabolized | Bacterial Biotransformation [7]: Compound metabolized | Bacterial Biotransformation [8]: Compound metabolized | Bacterial Biotransformation [9]: Compound metabolized | Bacterial Biotransformation [10]: Compound NOT metabolized | Bacterial Biotransformation [11]: Compound metabolized | Bacterial Biotransformation [12]: Compound metabolized | Bacterial Biotransformation [13]: Compound metabolized | Bacterial Biotransformation [14]: Compound metabolized | Bacterial Biotransformation [15]: Compound metabolized | Bacterial Biotransformation [16]: Compound metabolized | Bacterial Biotransformation [17]: Compound metabolized | Bacterial Biotransformation [18]: Compound metabolized | Bacterial Biotransformation [19]: Compound metabolized | Bacterial Biotransformation [20]: Compound metabolized

CNC(=C[N+](=O)[O-])NCCSCc1csc(CN(C)C)n1 [NIZATIDINE]
Bacterial Biotransformation [1]: Compound metabolized | Bacterial Biotransformation [2]: Compound metabolized | Bacterial Biotransformation [3]: Compound metabolized | Bacterial Biotransformation [4]: Compound metabolized | Bacterial Biotransformation [5]: Compound NOT metabolized | Bacterial Biotransformation [6]: Compound metabolized | Bacterial Biotransformation [7]: Compound metabolized | Bacterial Biotransformation [8]: Compound metabolized | Bacterial Biotransformation [9]: Compound metabolized | Bacterial Biotransformation [10]: Compound metabolized | Bacterial Biotransformation [11]: Compound metabolized | Bacterial Biotransformation [12]: Compound NOT metabolized | Bacterial Biotransformation [13]: Compound NOT metabolized | Bacterial Biotransformation [14]: Compound NOT metabolized | Bacterial Biotransformation [15]: Compound NOT metabolized | Bacterial Biotransformation [16]: Compound metabolized | Bacterial Biotransformation [17]: Compound metabolized | Bacterial Biotransformation [18]: Compound metabolized | Bacterial Biotransformation [19]: Compound metabolized | Bacterial Biotransformation [20]: Compound NOT metabolized
